Reference: PubChem BioAssay (NCI)
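Compound exposure: 48 hours, 5 concentrations, 96-well plates. GI50 = concentration required for 50% inhibition of growth. The concentration for full growth arrest is given as TGI.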

Key:
Assay in all cases: DTP human tumour cell line panel, 48 h
[1] = system: HOP-92 NSCLC
[2] = system: LOX IMVI melanoma
[3] = system: MALME-3M melanoma
[4] = system: OVCAR-3 ovarian
[5] = system: SNB-19 CNS
[6] = system: SW-620 colon
[7] = system: BT-549 breast
[8] = system: MDA-MB-231 breast
[9] = system: MDA-MB-435
[10] = system: SNB-75 CNS

Structure (SMILES) | TGI [1] [µM] | TGI [2] [µM] | TGI [3] [µM] | TGI [4] [µM] | TGI [5] [µM] | TGI [6] [µM] | TGI [7] [µM] | TGI [8] [µM] | TGI [9] [µM] | TGI [10] [µM] | GI50 [7] [µM] | GI50 [4] [µM] | GI50 [10] [µM] | GI50 [1] [µM] | GI50 [2] [µM] | GI50 [9] [µM] | GI50 [6] [µM]
CCCOC(=O)CCC(NC(=O)c1ccc(Nc2nc3ccccc3nc2-c2cccs2)cc1)C(=O)OCCC (configuration not stated) | > 100 | > 100 | 88.9 | > 100 | > 100 | > 100 | – | – | – | – | – | – | – | – | – | – | –
CCCNC(=O)c1cc(OC)c(OC)cc1NC(=O)C12CC3CC(CC(C3)C1)C2 | 34.6 | 39.7 | 32.9 | 35.4 | 30 | > 100 | 31.9 | 31.4 | 32.8 | – | – | – | – | – | – | – | –
COc1ccc(C(CC(=O)c2cccs2)C(=O)c2ccc3c(c2)OCO3)cc1 (configuration not stated) | – | > 100 | > 100 | – | – | > 100 | – | > 100 | > 100 | > 100 | – | – | – | – | – | – | –
O=C(NCC(O)COc1ccccc1)c1ccccc1O (configuration not stated) | > 100 | > 100 | > 100 | > 100 | > 100 | > 100 | > 100 | > 100 | > 100 | – | – | – | – | – | – | – | –
O=C(O)c1ccccc1Sc1ccc(C=C2NC(=S)N(c3ccccc3)C2=O)s1 | – | > 100 | > 100 | > 100 | > 100 | > 100 | > 100 | > 100 | > 100 | > 100 | – | – | – | – | – | – | –
O=[N+]([O-])c1ccc(CSC2=C(c3ccc(Cl)cc3)S/C(=C3\SC(SCc4ccc([N+](=O)[O-])cc4)=C(c4ccc(Cl)cc4)S3)S2)cc1 | > 100 | > 100 | > 100 | > 100 | > 100 | > 100 | > 100 | > 100 | > 100 | – | – | – | – | – | – | – | –
CCOC(=O)/C(C(=O)c1ccc[nH]1)=C1/CCCN1C | – | > 100 | > 100 | > 100 | > 100 | > 100 | > 100 | > 100 | > 100 | > 100 | – | – | – | – | – | – | –
CCOC(=O)c1c(N2CCN(C)CC2)[nH]c(=O)c(C(c2c(Cl)cccc2Cl)c2c(O)c(C(=O)OCC)c(N3CCN(C)CC3)[nH]c2=O)c1O | 37.6 | > 100 | 41.5 | 87.1 | 37.2 | 68.2 | 40.8 | 55.1 | 57.9 | – | – | – | – | – | – | – | –
CCOc1c2c(cc3c1C(=O)c1c(OC)cccc1C3=O)C=C(OC)CC2 | > 25 | > 25 | > 25 | > 25 | > 25 | > 25 | – | > 25 | > 25 | > 25 | – | – | – | – | – | – | –
CCOC(=O)CN(CC)C(=O)NC12CC3CC(CC(C3)C1)C2 | 176 | 409 | 378 | 512 | > 750 | > 750 | – | – | – | 316 | – | – | – | – | – | – | –
CN(C)CCCn1c(-c2ccc(Br)cc2)csc1=Nc1ccccc1 | > 100 | – | – | 23.3 | 31.6 | – | 31.6 | > 100 | 61.5 | 29.8 | – | – | – | – | – | – | –
C=CC[PH+](c1ccccc1)c1ccccc1.C=CC[PH+](c1ccccc1)c1ccccc1.[Pt+2].[S-]c1nc2ccccc2[nH]1.[S-]c1nc2ccccc2[nH]1 | – | – | – | 5.16 | – | – | 5.54 | – | – | 3.89 | 2.11 | 1.9 | 1.2 | – | – | – | –
Cc1cc2nc3c(N)nn(CCCN(C)C)c3nc2cc1C | – | – | – | > 100 | > 100 | > 100 | > 100 | > 100 | > 100 | > 100 | – | – | – | – | – | – | –
COc1ccc(/C=C(\C#N)c2ccccn2)cc1OC | 48.7 | – | > 100 | > 100 | > 100 | > 100 | 45.4 | – | – | 84.9 | – | – | – | – | – | – | –
c1c2c(cc3c1OCO3)-c1ncc3cc4c(cc3c1C2)OCO4 | > 80.5 | 94.1 | – | 0.356 | 43.6 | > 100 | > 100 | – | > 100 | – | 0.211 | 0.18 | – | 33.4 | < 0.01 | 54 | 0.136
O=C1C=C2SC3C[C@@]24CC1(O)[N+]1=c2c4c(c(O)c4c2=C(C=N4)CC1)N3 | 2.67 | 1.55 | – | 0.515 | 3.12 | 0.809 | – | – | – | 3.23 | – | – | – | – | – | – | –
C#C[C@]1(O)CC[C@H]2[C@@H]3CCC4=C/C(=N/OC(=O)c5cccc6cc7ccccc7nc56)CC[C@@H]4[C@H]3CC[C@@]21CC | > 100 | > 100 | – | > 100 | > 100 | > 100 | > 100 | > 100 | > 100 | > 100 | – | – | – | – | – | – | –
CSC(SC)=C(C#N)C(=O)Nc1ccc(Cl)cc1 | – | 62.1 | > 100 | > 100 | > 100 | > 100 | > 100 | > 100 | > 100 | > 100 | – | – | – | – | – | – | –
c1ccc(-c2cc(-c3ccccc3)nc(-c3ccncc3)c2)cc1 | – | > 100 | > 100 | > 100 | > 100 | > 100 | > 100 | > 100 | > 100 | – | – | – | – | – | – | – | –
COC(=O)[C@@H]1CN(C(=O)Cc2ccccc2)C(=O)N1 | > 100 | > 100 | > 100 | > 100 | > 100 | > 100 | – | > 100 | > 100 | > 100 | – | – | – | – | – | – | –
O=C1OCOC2(CCCC2)C1c1ccccc1 (configuration not stated) | > 100 | > 100 | > 100 | > 100 | > 100 | > 100 | – | > 100 | > 100 | > 100 | – | – | – | – | – | – | –
O=S(c1ccc(O)cc1)c1ccc(O)cc1 | > 100 | > 100 | > 100 | > 100 | > 100 | > 100 | – | – | – | > 100 | – | – | – | – | – | – | –
O=C(O)COc1c(Cl)cc(Cl)c(C(c2c(Cl)cc(Cl)c(OCC(=O)O)c2Cl)C(Cl)(Cl)Cl)c1Cl | 62.4 | > 100 | 76.7 | – | > 100 | > 100 | 51.3 | 61.3 | 78.2 | 93.5 | – | – | – | – | – | – | –
CCN(CC)C(=O)N[C@@H](CC(C)C)C(=O)NC | – | > 100 | > 100 | > 100 | > 100 | > 100 | > 100 | > 100 | > 100 | > 100 | – | – | – | – | – | – | –
